Columns and labels:
[1] = target: T1, EGFR (aa668-1210, Invitrogen) (Homo sapiens, UniProt P00533); assay: Biochemical EGFR inhibition assay (TR-FRET), wild-type EGFR; conditions: ATP at Km, 15 min pre-incubation, 60 min reaction; read-out: WT (Km ATP) IC50
T1 construct: EGFR (aa668-1210, Invitrogen); purchased Invitrogen
Method in brief: (§1)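 ATP at Km; biotin-poly GT substrate; HEPES pH7.5/MgCl2/DTT buffer; 15 min compound preincubation, 60 min reaction, RT. Eu/XL665 HTRF readout, 665/620 ratio; 4-parameter IC50.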

[2] = target: T2, EGFR(L858R_T790M_C797S) (aa695-end, Invitrogen) (Homo sapiens, UniProt P00533, C797S/L858R/T790M); assay: Biochemical EGFR inhibition assay (TR-FRET), L858R/T790M/C797S mutant; conditions: ATP at Km, 15 min pre-incubation, 60 min reaction; read-out: LR_TM_CS (Km ATP) IC50
T2 construct: purchased Invitrogen
Method in brief: as §1

[3] = target: EGFR(Dell9_T790M_C797S) (aa 669-1210, in house) (Homo sapiens, UniProt P00533, T790M/C797S, form not given); assay: Biochemical EGFR inhibition assay (TR-FRET), Del19/T790M/C797S mutant; conditions: ATP at Km, 15 min pre-incubation, 60 min reaction; read-out: Del_TM_CS (Km ATP) IC50
Method in brief: as §1

BaF3-WT cells = BaF3-WT cells (Homo sapiens, UniProt P00533); assay: Cell antiproliferation assay (CellTiter-Glo), BaF3-WT; assay type: cell-based; conditions: 48 h treatment, read-out: BaF3-WT IC50
Method in brief: (§2)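 Cells exposed 48 h to 8 doses from 5-fold serial dilution (500× DMSO stocks from 5 mM), final 0.2% DMSO. Viability by CellTiter-Glo luminescence; IC50 from four-parameter fit of percent inhibition versus concentration.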

BaF3-LR_TM_CS cells = BaF3-LR_TM_CS cells (Homo sapiens, UniProt P00533, T790M/C797S/L858R, cells depend on it); assay: Cell antiproliferation assay (CellTiter-Glo), BaF3-LR_TM_CS; assay type: cell-based; conditions: 48 h treatment, read-out: BaF3-LR_TM_CS IC50
Method in brief: as §2

BaF3-Del_TM_CS cells = BaF3-Del_TM_CS cells (Homo sapiens, UniProt P00533, T790M/C797S, cells depend on it, form not given); assay: Cell antiproliferation assay (CellTiter-Glo), BaF3-Del_TM_CS; assay type: cell-based; conditions: 48 h treatment, read-out: BaF3-Del_TM_CS IC50
Method in brief: as §2

T1 sequence (P00533 668-1210): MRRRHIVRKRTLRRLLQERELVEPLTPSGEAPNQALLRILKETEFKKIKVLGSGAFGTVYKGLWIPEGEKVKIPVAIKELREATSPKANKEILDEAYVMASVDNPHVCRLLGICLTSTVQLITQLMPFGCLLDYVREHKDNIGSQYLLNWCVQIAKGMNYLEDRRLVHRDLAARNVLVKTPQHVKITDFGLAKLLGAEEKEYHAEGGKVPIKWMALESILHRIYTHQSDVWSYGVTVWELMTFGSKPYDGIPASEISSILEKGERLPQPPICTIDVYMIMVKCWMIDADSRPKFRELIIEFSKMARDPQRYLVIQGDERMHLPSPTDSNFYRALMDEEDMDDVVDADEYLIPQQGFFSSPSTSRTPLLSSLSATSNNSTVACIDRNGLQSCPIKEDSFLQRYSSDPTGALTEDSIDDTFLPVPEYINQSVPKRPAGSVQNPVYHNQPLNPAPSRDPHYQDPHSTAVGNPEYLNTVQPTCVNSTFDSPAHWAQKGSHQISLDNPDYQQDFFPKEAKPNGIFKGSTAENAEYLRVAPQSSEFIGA
Chain of BaF3-WT cells (P00533 whole entry, change not shown): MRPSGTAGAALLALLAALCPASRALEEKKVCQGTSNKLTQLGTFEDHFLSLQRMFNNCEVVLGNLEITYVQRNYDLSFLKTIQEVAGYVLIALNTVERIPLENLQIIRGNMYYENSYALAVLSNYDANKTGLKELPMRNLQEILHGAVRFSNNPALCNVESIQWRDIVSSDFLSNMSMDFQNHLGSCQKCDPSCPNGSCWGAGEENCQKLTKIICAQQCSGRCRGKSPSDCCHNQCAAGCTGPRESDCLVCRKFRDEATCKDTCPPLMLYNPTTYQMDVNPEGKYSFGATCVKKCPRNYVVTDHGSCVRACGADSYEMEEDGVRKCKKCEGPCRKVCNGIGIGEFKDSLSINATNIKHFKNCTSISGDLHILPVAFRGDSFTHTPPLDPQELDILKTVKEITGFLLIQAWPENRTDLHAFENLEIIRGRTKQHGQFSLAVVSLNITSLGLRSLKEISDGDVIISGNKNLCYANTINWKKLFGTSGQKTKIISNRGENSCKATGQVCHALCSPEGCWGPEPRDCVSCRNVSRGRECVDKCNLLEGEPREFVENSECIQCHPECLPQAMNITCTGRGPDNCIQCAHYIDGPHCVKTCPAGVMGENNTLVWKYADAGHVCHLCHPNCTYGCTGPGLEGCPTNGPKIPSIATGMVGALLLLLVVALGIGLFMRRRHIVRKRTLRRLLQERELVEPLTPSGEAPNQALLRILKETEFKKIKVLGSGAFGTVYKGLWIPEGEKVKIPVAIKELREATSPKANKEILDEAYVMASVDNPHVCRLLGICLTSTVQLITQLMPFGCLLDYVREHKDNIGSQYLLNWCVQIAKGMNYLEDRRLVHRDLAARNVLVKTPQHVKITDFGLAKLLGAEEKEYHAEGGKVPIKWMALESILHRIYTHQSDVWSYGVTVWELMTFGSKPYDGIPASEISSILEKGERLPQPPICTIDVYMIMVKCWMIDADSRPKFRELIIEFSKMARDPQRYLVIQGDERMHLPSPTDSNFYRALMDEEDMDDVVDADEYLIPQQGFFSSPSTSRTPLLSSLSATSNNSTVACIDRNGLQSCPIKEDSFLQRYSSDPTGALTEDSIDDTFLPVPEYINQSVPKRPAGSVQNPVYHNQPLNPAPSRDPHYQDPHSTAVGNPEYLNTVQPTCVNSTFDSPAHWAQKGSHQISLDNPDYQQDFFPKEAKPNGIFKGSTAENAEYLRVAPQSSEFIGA
Chain of BaF3-LR_TM_CS cells (P00533 whole entry T790M/C797S/L858R): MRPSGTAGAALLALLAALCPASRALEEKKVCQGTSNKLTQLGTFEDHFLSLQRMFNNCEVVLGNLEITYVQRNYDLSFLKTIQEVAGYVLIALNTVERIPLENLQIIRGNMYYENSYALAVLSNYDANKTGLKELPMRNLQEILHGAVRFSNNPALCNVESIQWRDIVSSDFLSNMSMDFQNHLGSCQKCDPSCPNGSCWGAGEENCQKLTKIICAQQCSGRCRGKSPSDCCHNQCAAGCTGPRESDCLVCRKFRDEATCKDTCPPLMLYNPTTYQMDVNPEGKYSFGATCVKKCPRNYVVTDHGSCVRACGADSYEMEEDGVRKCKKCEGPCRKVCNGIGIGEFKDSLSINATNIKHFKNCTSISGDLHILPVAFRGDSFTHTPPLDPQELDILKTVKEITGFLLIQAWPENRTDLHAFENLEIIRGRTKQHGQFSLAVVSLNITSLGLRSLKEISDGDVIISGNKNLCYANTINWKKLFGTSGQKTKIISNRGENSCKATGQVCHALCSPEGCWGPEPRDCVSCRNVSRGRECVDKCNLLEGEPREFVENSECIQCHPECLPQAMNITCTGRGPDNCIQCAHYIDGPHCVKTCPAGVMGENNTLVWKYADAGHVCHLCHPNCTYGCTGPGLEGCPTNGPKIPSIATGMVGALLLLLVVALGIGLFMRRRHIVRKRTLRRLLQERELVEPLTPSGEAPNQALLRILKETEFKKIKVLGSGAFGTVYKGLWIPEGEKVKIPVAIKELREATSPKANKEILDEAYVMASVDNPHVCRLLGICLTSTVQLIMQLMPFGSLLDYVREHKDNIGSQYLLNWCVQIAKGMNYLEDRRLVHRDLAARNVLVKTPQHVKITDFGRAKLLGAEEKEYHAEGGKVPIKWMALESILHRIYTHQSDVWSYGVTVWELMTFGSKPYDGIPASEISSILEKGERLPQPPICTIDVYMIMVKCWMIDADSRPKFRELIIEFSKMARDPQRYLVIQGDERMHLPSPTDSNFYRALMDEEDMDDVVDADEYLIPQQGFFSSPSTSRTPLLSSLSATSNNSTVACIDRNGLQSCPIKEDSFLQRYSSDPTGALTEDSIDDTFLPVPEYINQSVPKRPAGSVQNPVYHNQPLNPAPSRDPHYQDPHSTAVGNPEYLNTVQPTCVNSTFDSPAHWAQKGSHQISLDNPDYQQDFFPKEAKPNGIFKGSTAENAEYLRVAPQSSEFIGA
Chain of BaF3-Del_TM_CS cells (P00533 with tags, fused parts or gaps DEL746-750/T790M/C797S, form open): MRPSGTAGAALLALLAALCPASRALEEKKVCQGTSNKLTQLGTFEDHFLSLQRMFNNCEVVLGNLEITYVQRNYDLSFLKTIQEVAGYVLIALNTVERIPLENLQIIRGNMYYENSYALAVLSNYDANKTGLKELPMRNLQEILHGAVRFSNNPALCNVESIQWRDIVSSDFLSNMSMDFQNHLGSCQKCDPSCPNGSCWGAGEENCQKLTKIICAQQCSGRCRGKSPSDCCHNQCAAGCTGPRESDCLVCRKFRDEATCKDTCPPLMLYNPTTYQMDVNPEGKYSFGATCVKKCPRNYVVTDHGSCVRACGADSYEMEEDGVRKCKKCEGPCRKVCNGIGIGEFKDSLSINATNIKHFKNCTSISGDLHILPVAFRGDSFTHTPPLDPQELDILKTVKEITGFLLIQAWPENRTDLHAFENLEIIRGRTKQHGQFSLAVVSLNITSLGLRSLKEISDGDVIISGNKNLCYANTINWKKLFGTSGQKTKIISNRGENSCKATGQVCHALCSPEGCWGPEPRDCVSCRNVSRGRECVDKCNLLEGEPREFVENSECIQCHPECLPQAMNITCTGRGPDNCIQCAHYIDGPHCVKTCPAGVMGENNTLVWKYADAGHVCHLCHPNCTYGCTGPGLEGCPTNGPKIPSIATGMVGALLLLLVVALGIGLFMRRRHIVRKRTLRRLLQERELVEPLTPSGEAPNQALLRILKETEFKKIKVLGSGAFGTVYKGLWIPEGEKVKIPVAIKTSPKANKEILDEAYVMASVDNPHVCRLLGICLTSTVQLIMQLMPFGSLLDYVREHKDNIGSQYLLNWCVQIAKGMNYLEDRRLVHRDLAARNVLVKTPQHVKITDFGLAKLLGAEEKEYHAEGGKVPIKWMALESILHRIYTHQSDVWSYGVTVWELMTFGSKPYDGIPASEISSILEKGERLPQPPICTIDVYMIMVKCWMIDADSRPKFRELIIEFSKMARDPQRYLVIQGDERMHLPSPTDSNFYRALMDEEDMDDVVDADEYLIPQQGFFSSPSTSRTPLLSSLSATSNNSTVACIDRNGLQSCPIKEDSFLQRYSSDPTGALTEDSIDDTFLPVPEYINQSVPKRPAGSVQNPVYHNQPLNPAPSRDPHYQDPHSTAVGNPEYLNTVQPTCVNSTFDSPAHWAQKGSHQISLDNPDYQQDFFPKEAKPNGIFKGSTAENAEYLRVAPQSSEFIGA
T2 sequence (P00533 695-1210 T790M/C797S/L858R): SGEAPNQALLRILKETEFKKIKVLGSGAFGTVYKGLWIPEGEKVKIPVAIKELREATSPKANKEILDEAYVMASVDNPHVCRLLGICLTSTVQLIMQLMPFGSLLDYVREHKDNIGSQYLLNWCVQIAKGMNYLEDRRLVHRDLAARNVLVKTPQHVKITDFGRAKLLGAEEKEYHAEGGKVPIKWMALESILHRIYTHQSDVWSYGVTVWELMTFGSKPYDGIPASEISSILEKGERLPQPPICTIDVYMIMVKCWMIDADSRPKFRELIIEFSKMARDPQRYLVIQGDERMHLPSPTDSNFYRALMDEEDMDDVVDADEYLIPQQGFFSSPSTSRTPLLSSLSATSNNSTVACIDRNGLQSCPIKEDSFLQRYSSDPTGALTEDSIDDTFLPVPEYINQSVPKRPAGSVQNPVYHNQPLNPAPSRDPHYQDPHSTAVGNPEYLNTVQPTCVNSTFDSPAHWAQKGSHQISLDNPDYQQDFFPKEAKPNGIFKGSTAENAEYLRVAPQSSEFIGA

Compound | IC50 [1] [nM] | IC50 [2] [nM] | IC50 [3] [nM] | GI50 (BaF3-WT cells) [nM] | GI50 (BaF3-LR_TM_CS cells) [nM] | GI50 (BaF3-Del_TM_CS cells) [nM]
CNS(=O)(=O)N1CCc2cccc(Nc3nc(Nc4ccc(N5CCC(N6CCN(C)CC6)CC5)cc4OC)ncc3Cl)c21 [Example 14, 7-((5-chloro-2-((2-methoxy-4-(4-(4-methylpiperazin-1-yl)piperidin-1-yl)phenyl)amino)pyrimidin-4-yl)amino)-N-methylindoline-1-sulfonamide] | 1.4 | 0.24 | 0.59 | 193 | 14.3 | 8.76
COc1cc(N2CCC(N3CCN(C)CC3)CC2)ccc1Nc1nc(Nc2cccc3c2N(S(C)(=O)=O)CC3)c2nc[nH]c2n1 [Example 72, N^2-(2-methoxy-4-(4-(4-methylpiperazin-1-yl)piperidin-1-yl)phenyl)-N^6-(1-(methylsulfonyl)indolin-7-yl)-9H-purine-2,6-diamine] | 3.1 | 1.4 | 1.3 | 2600 | 2200 | 246
COc1cc(N2CCCN(C)CC2)c(C)cc1Nc1nc(Nc2cccc3c2N(S(C)(=O)=O)CC3)c2cc[nH]c2n1 [Example 101, N^2-(2-methoxy-5-methyl-4-(4-methyl-1,4-diazepan-1-yl)phenyl)-N^4-(1-(methylsulfonyl)indolin-7-yl)-7H-pyrrolo[2,3-d]pyrimidine-2,4-diamine] | 170 | 2 | 3.1 | 1410 | 157 | 58.9
COc1cc(N2CCC(N3CCN(C)CC3)CC2)ccc1Nc1ncc(Cl)c(Nc2cccc3c2N(S(C)(=O)=O)C(C)C3)n1 (stereo not drawn) [Example 18, 5-chloro-N^2-(2-methoxy-4-(4-(4-methylpiperazin-1-yl)piperidin-1-yl)phenyl)-N^4-(2-methyl-1-(methylsulfonyl)indolin-7-yl)pyrimidine-2,4-diamine] | 2.3 | 0.4 | 0.68 | 422 | 16.5 | 7.47
CNC(=O)N1CCc2cccc(Nc3nc(Nc4ccc(N5CCC(N6CCN(C)CC6)CC5)cc4OC)ncc3Cl)c21 [Example 16, 7-((5-chloro-2-((2-methoxy-4-(4-(4-methylpiperazin-1-yl)piperidin-1-yl)phenyl)amino)pyrimidin-4-yl)amino)-N-methylindoline-1-carboxamide] | 286 | 38 | 87 | 1980 | 1120 | 802
CN(C)C1CCN(c2ccc(Nc3ncc(Cl)c(Nc4cccc5c4N(S(C)(=O)=O)CC5)n3)c3c2CCO3)CC1 [Example 47, 5-chloro-N^2-(4-(4-(dimethylamino)piperidin-1-yl)-2,3-dihydrobenzofuran-7-yl)-N^4-(1-(methylsulfonyl)indolin-7-yl)pyrimidine-2,4-diamine] | 3.8 | 0.85 | 0.3 | 630 | 37.8 | 12.3
CCN1CCN(C2CCN(c3ccc(Nc4nc(Nc5ccc(F)c6c5N(S(C)(=O)=O)CC65CCC5)c5cc[nH]c5n4)cc3F)CC2)CC1 [Example 83, N^2-(4-(4-(4-ethylpiperazin-1-yl)piperidin-1-yl)-3-fluorophenyl)-N^4-(4′-fluoro-1′-(methylsulfonyl)spiro[cyclobutane-1,3′-indolin]-7′-yl)-7H-pyrrolo[2,3-d]pyrimidine-2,4-diamine] | 7290 | 42 | 37 | 1860 | 1040 | 707
COc1cc(N2CCC(N3CCN(C)CC3)CC2)ccc1Nc1ncc(Cl)c(Nc2cccc3c2N(S(C)(=O)=O)CC3)n1 [Example 30, 5-chloro-N^2-(2-methoxy-4-(4-(4-methylpiperazin-1-yl)piperidin-1-yl)phenyl)-N^4-(1-(methylsulfonyl)indolin-7-yl)pyrimidine-2,4-diamine] | 0.4 | 0.3 | 0.2 | 411 | 37.3 | 7.59
COc1cc(N2CCC(N3CCN(C)CC3)CC2)ccc1Nc1nc(Nc2cccc3c2N(S(C)(=O)=O)CC3)c2cc[nH]c2n1 [Example 90, N^2-(2-methoxy-4-(4-(4-methylpiperazin-1-yl)piperidin-1-yl)phenyl)-N^4-(1-(methylsulfonyl)indolin-7-yl)-7H-pyrrolo[2,3-d]pyrimidine-2,4-diamine] | 44 | 1.04 | 1.5 | 2560 | 191 | 87.5
COc1cc(C2CCN(C)CC2)c(C)cc1Nc1nc(Nc2cccc3c2N(S(C)(=O)=O)CC3)c2cc[nH]c2n1 [Example 99, N^2-(2-methoxy-5-methyl-4-(1-methylpiperidin-4-yl)phenyl)-N^4-(1-(methylsulfonyl)indolin-7-yl)-7H-pyrrolo[2,3-d]pyrimidine-2,4-diamine] | 427 | 3 | 8.6 | 1970 | 399 | 59
CN1CCN(c2ccc(Nc3nc(Nc4cccc5c4N(S(C)(=O)=O)CC5)c4cc[nH]c4n3)cc2F)CC1 [Example 84, N^2-(3-fluoro-4-(4-methylpiperazin-1-yl)phenyl)-N^4-(1-(methylsulfonyl)indolin-7-yl)-7H-pyrrolo[2,3-d]pyrimidine-2,4-diamine] | 150 | 1.5 | 1.6 | 335 | 78 | 10.7
COc1cc(C2CCC(N(C)C)CC2)c(C)cc1Nc1nc(Nc2cccc3c2N(S(C)(=O)=O)CC3)c2cc[nH]c2n1 (stereo not drawn) [Example 104, N^2-(4-(4-(dimethylamino)cyclohexyl)-2-methoxy-5-methylphenyl)-N^4-(1-(methylsulfonyl)indolin-7-yl)-7H-pyrrolo[2,3-d]pyrimidine-2,4-diamine] | 332 | 3.4 | 5.3 | 1490 | 195 | 128
COc1cc(N2CCC(N3CCN(C)CC3)CC2)ccc1Nc1ncc(Cl)c(Nc2cccc3c2N(C(C)=O)CC3)n1 [Example 17, 1-(7-((5-chloro-2-((2-methoxy-4-(4-(4-methylpiperazin-1-yl)piperidin-1-yl)phenyl)amino)pyrimidin-4-yl)amino)indolin-1-yl)ethan-1-one] | 21 | 6.7 | 15 | 1710 | 366 | 183
COc1cc(N2CCC(N3CCN(C)CC3)CC2)ccc1Nc1ncc(Cl)c(Nc2ccc(Br)c3c2N(S(C)(=O)=O)CC3)n1 [Example 2, N^4-(4-bromo-1-(methylsulfonyl)indolin-7-yl)-5-chloro-N^2-(2-methoxy-4-(4-(4-methylpiperazin-1-yl)piperidin-1-yl)phenyl)pyrimidine-2,4-diamine] | 0.64 | 0.48 | 0.36 | 511 | 66.1 | 14.6

Reference: patent US20260167619A2, “INDOLINE COMPOUNDS AND DERIVATIVES AS EGFR INHIBITORS” (BeOne Medicines I GmbH, priority 2020, published 2026)
